Experimental data: patent publication US20260015350A1, “AZAQUINAZOLINE PAN-KRAS INHIBITORS” (Mirati Therapeutics, Inc., priority 2022, published 2026)

What was measured:
[1] = biological target: T1, KRas^G12V (Homo sapiens, UniProt P01116, G12V); experiment: KRas binding assay (TR-FRET tracer displacement), KRas G12V
T1 construct: Biotinylated KRas (corresponding to amino acids 1-169, produced at Accelegan Inc.); biotin (biotinylated); purchased Accelegan Inc

[2] = biological target: T2, KRas^G13D (Homo sapiens, UniProt P01116, G13D); experiment: KRas binding assay (TR-FRET tracer displacement), KRas G13D; conditions: for inhibition at 0.01 µM: single point, 10 nM compound, TR-FRET
T2 construct: Biotinylated KRas (corresponding to amino acids 1-169, produced at Accelegan Inc.); biotin (biotinylated); purchased Accelegan Inc

[3] = biological target: T3, KRas^G12S (Homo sapiens, UniProt P01116, G12S); experiment: KRas binding assay (TR-FRET tracer displacement), KRas G12S; conditions: for inhibition at 0.01 µM: single point, 10 nM compound, TR-FRET
T3 construct: Biotinylated KRas (corresponding to amino acids 1-169, produced at Accelegan Inc.); biotin (biotinylated); purchased Accelegan Inc

[4] = biological target: T4, KRas^Q61H (Homo sapiens, UniProt P01116, Q61H); experiment: KRas binding assay (TR-FRET tracer displacement), KRas Q61H; conditions: for inhibition at 0.01 µM: single point, 10 nM compound, TR-FRET
T4 construct: Biotinylated KRas (corresponding to amino acids 1-169, produced at Accelegan Inc.); biotin (biotinylated); purchased Accelegan Inc

[5] = tested on: KRas-mediated phosphorylation of ERK in H358 cells; experiment: Inhibition of KRas-mediated phosphorylation of ERK (Cisbio HTRF pERK), H358 cells; assay type: cell-based; conditions: Homo sapiens; for IC50: NCI-H358, HTRF pERK; for inhibition at 0.1 µM: NCI-H358, 3 h, single point, 100 nM compound, 3 hrs
Outline: (§1)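 A cell-based HTRF pERK assay: ten-point, threefold titrations beginning at 10 uM were applied for 3 hrs, with 0.2 uM Trametinib wells as the minimum control. Cells were lysed cold, and lysate was incubated with the antibody pair for 2 hrs before reading.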

[6] = biological target: T5, KRas^G12R (Homo sapiens, UniProt P01116, G12R); experiment: KRas binding assay (TR-FRET tracer displacement), KRas G12R
T5 construct: Biotinylated KRas (corresponding to amino acids 1-169, produced at Accelegan Inc.); biotin (biotinylated); purchased Accelegan Inc

[7] = tested on: KRas-mediated phosphorylation of ERK in A549 cells; experiment: Inhibition of KRas-mediated phosphorylation of ERK (Cisbio HTRF pERK), A549 cells; assay type: cell-based; conditions: Homo sapiens; for IC50: HTRF pERK; for inhibition at 0.1 µM: A549, 3 h, single point, 100 nM compound, 3 hrs
Outline: as §1

[8] = tested on: KRas-mediated phosphorylation of ERK in PSN1 cells; experiment: Inhibition of KRas-mediated phosphorylation of ERK (Cisbio HTRF pERK), PSN1 cells; assay type: cell-based; conditions: Homo sapiens
Outline: (§2)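 Seeding density was 6,000 cells/well; medium RPMI, 10% FBS. Read-out by homogeneous time-resolved fluorescence (pERK) after 4 hours covered at room temperature.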

[9] = biological target: T6, KRas^G12A (Homo sapiens, UniProt P01116, G12A); experiment: KRas binding assay (TR-FRET tracer displacement), KRas G12A; conditions: for inhibition at 0.01 µM: single point, 10 nM compound, TR-FRET
T6 construct: Biotinylated KRas (corresponding to amino acids 1-169, produced at Accelegan Inc.); biotin (biotinylated); purchased Accelegan Inc

[10] = tested on: KRas-mediated phosphorylation of ERK in HCT116 cells; experiment: Inhibition of KRas-mediated phosphorylation of ERK (Cisbio HTRF pERK), HCT116 cells; assay type: cell-based; conditions: Homo sapiens; for inhibition at 0.1 µM: HCT-116, 3 h, single point, 100 nM compound, 3 hrs; for IC50: HCT-116, HTRF pERK
Outline: as §1

[11] = tested on: KRas-mediated phosphorylation of ERK in H460 cells; experiment: Inhibition of KRas-mediated phosphorylation of ERK (Cisbio HTRF pERK), H460 cells; assay type: cell-based; conditions: Homo sapiens; for inhibition at 0.1 µM: NCI-H460, 3 h, single point, 100 nM compound, 3 hrs; for IC50: NCI-H460, HTRF pERK
Outline: as §1

[12] = biological target: T7, KRas^WT (Homo sapiens, UniProt P01116); experiment: KRas binding assay (TR-FRET tracer displacement), KRas WT; conditions: for inhibition at 0.01 µM: single point, 10 nM compound, TR-FRET
T7 construct: Biotinylated KRas (corresponding to amino acids 1-169, produced at Accelegan Inc.); biotin (biotinylated); purchased Accelegan Inc

[13] = biological target: T8, KRas^G12D (Homo sapiens, UniProt P01116, G12D); experiment: KRas binding assay (TR-FRET tracer displacement), KRas G12D
T8 construct: Biotinylated KRas (corresponding to amino acids 1-169, produced at Accelegan Inc.); biotin (biotinylated); purchased Accelegan Inc

[14] = biological target: T9, KRas^G12C (Homo sapiens, UniProt P01116, G12C); experiment: KRas binding assay (TR-FRET tracer displacement), KRas G12C; conditions: for inhibition at 0.01 µM: single point, 10 nM compound, TR-FRET
T9 construct: Biotinylated KRas (corresponding to amino acids 1-169, produced at Accelegan Inc.); biotin (biotinylated); purchased Accelegan Inc

[15] = tested on: KRas-mediated phosphorylation of ERK in AsPC-1 cells; experiment: Inhibition of KRas-mediated phosphorylation of ERK (Cisbio HTRF pERK), AsPC-1 cells; assay type: cell-based; conditions: Homo sapiens, ASPC1, AsPC-1 cells; HTRF pERK
Outline: as §1

[16] = tested on: KRas-mediated phosphorylation of ERK in MKN1 cells; experiment: Inhibition of KRas-mediated phosphorylation of ERK (Cisbio HTRF pERK), MKN1 cells; assay type: cell-based; conditions: Homo sapiens, MKN-1
Outline: as §2

[17] = tested on: KRas-mediated phosphorylation of ERK in H727 cells; experiment: Inhibition of KRas-mediated phosphorylation of ERK (Cisbio HTRF pERK), H727 cells; assay type: cell-based; conditions: Homo sapiens, NCI-H727, H727 cells; HTRF pERK
Outline: as §1

T7 sequence (P01116 1-169 isoform P01116-2): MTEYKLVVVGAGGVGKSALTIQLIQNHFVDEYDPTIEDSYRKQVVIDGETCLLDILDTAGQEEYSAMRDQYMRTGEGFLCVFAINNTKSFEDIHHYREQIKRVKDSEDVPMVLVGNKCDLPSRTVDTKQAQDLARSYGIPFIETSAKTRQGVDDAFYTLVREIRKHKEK
T5 sequence (P01116 1-169 isoform P01116-2 G12R): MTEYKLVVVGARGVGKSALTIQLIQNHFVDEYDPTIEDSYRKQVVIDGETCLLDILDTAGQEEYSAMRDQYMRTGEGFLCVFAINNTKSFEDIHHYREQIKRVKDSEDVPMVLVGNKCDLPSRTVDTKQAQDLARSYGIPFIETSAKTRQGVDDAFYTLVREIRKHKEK
T6 sequence (P01116 1-169 isoform P01116-2 G12A): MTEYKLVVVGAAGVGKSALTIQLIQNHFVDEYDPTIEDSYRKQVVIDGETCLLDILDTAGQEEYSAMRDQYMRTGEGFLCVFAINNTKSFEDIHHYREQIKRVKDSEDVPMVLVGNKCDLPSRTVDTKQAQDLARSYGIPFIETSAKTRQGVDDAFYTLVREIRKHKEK
T3 sequence (P01116 1-169 isoform P01116-2 G12S): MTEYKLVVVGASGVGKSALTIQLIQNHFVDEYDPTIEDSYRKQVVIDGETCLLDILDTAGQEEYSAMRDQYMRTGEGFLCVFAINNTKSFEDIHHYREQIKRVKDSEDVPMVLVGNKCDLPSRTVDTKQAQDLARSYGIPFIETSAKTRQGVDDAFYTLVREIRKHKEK
T1 sequence (P01116 1-169 isoform P01116-2 G12V): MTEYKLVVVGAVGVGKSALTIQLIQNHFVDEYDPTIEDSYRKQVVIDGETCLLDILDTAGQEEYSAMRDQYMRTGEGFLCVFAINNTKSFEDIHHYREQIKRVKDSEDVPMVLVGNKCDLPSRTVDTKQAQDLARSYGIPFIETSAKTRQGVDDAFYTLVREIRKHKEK
T4 sequence (P01116 1-169 isoform P01116-2 Q61H): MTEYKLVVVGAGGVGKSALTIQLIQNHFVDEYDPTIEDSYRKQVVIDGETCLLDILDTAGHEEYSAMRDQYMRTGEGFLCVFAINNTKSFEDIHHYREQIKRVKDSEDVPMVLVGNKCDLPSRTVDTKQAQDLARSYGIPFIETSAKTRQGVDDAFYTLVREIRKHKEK
T8 sequence (P01116 1-169 isoform P01116-2 G12D): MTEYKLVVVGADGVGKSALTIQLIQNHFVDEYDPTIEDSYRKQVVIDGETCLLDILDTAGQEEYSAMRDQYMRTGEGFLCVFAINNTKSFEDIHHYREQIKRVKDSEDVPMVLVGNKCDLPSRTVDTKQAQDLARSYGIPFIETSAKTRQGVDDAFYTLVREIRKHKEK
T9 sequence (P01116 1-169 isoform P01116-2 G12C): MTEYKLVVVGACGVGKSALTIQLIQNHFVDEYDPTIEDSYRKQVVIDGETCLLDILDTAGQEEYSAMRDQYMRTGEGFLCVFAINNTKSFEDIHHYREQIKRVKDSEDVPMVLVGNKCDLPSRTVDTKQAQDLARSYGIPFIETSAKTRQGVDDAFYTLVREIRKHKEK
T2 sequence (P01116 1-169 isoform P01116-2 G13D): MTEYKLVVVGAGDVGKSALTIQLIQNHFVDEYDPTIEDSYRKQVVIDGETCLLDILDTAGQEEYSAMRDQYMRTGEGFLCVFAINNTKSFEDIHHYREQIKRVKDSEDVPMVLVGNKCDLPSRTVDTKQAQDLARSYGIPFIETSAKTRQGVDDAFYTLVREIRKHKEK

| Structure (SMILES) | IC50 [1] [nM] | IC50 [6] [nM] | IC50 [7] [nM] | IC50 [8] [nM] | IC50 [10] [nM] | IC50 [11] [nM] | IC50 [13] [nM] | IC50 [15] [nM] | IC50 [16] [nM] | IC50 [17] [nM] | inhibition at 0.01 µM [2] [%] | inhibition at 0.01 µM [3] [%] | inhibition at 0.01 µM [4] [%] | inhibition at 0.01 µM [9] [%] | inhibition at 0.01 µM [12] [%] | inhibition at 0.01 µM [14] [%] | inhibition at 0.1 µM [5] [%] | inhibition at 0.1 µM [7] [%] | other results |
| --- | --- | --- | --- | --- | --- | --- | --- | --- | --- | --- | --- | --- | --- | --- | --- | --- | --- | --- | --- |
| O=S1(=O)NCC2(CCCN(c3nc(OC[C@@]45CCCN4C[C@H](F)C5)nc4c(F)c(-c5c6ccccc6cc6[nH]ncc56)ncc34)C2)N1 (stereo partly drawn) [Example 762, 7-(7-(1H-benzo[f]indazol-4-yl)-8-fluoro-2-(((2R,7aS)-2-fluorohexahydro-1H-pyrrolizin-7a-yl)methoxy)pyrido[4,3-d]pyrimidin-4-yl)-2-thia-1,3,7-triazaspiro[4.5]decane 2,2-dioxide] | < 2 | < 2 | 234 | 2550 | 134 | 327 | 2 | 704 | 139 | 220 | – | – | – | – | – | – | – | – | IC50 ([2]; TR-FRET tracer displacement, KRas G13D): < 2 nM; IC50 ([3]; TR-FRET tracer displacement, KRas G12S): < 2 nM; IC50 ([4]; TR-FRET tracer displacement, KRas Q61H): < 2 nM; IC50 [5]: 40 nM; IC50 ([9]; TR-FRET tracer displacement, KRas G12A): < 2 nM; inhibition at 0.1 µM [10]: 36%; inhibition at 0.1 µM [11]: 22%; IC50 ([12]; TR-FRET tracer displacement, KRas WT): < 2 nM; IC50 ([14]; TR-FRET tracer displacement, KRas G12C): < 2 nM |
| CCc1c(F)ccc2cc(O)cc(-c3ncc4c(N5CCCCC(C#N)C5)nc(OC[C@@]56CCCN5C[C@H](F)C6)nc4c3F)c12 (stereo partly drawn) [Example 547, 1-(7-(8-ethyl-7-fluoro-3-hydroxynaphthalen-1-yl)-8-fluoro-2-(((2R,7aS)-2-fluorohexahydro-1H-pyrrolizin-7a-yl)methoxy)pyrido[4,3-d]pyrimidin-4-yl)azepane-3-carbonitrile] | 7 | 10 | – | 7520 | – | 51 | 4 | 49 | 16 | 263 | 76 | 58 | 70 | 49 | 68 | 56 | 20 | 33 | – |
| CCc1c(F)ccc2cc(O)cc(-c3ncc4c(N5CCC[C@]6(C5)C[C@@H](O)C6)nc(OC[C@@]56CCCN5[C@H](COC(=O)N(C)C)CC6)nc4c3F)c12 [Example 713, ((3S,7aS)-7a-(((7-(8-ethyl-7-fluoro-3-hydroxynaphthalen-1-yl)-8-fluoro-4-((2S,4s)-2-hydroxy-6-azaspiro[3.5]nonan-6-yl)pyrido[4,3-d]pyrimidin-2-yl)oxy)methyl)hexahydro-1H-pyrrolizin-3-yl)methyl dimethylcarbamate] | 2 | 4 | – | 3580 | – | 102 | 3 | 73 | 22 | 59 | 67 | 76 | 69 | 74 | 66 | 81 | 60 | 25 | – |
| CCc1c(F)ccc2cc(O)cc(-c3ncc4c(N5CCCn6nncc6C5)nc(OC[C@@]56CCCN5C[C@H](F)C6)nc4c3F)c12 [Example 562, 4-(4-(7,8-dihydro-4H-[1,2,3]triazolo[1,5-a][1,4]diazepin-5(6H)-yl)-8-fluoro-2-(((2R,7aS)-2-fluorohexahydro-1H-pyrrolizin-7a-yl)methoxy)pyrido[4,3-d]pyrimidin-7-yl)-5-ethyl-6-fluoronaphthalen-2-ol] | 3 | 3 | 496 | > 10000 | 1060 | 438 | < 2 | 76 | 35 | 217 | 69 | 81 | 67 | 59 | 62 | 76 | – | – | – |
| CCc1c(F)ccc2cc(O)cc(-c3ncc4c(N5CCC[C@@](C)(O)C5)nc(OC[C@@]56CCCN5[C@H](COC(=O)NC)CC6)nc4c3F)c12 [Example 706, ((3S,7aS)-7a-(((7-(8-ethyl-7-fluoro-3-hydroxynaphthalen-1-yl)-8-fluoro-4-((R)-3-hydroxy-3-methylpiperidin-1-yl)pyrido[4,3-d]pyrimidin-2-yl)oxy)methyl)hexahydro-1H-pyrrolizin-3-yl)methyl methylcarbamate] | < 2 | 2 | 112 | 2780 | 85 | 39 | 3 | 45 | 9 | 83 | 89 | 85 | 88 | 82 | 84 | 89 | – | – | – |

Second part, led by results:

| IC50 [1] [nM] | IC50 [6] [nM] | IC50 [7] [nM] | IC50 [8] [nM] | IC50 [10] [nM] | IC50 [11] [nM] | IC50 [13] [nM] | IC50 [15] [nM] | IC50 [16] [nM] | IC50 [17] [nM] | inhibition at 0.01 µM [2] [%] | inhibition at 0.01 µM [3] [%] | inhibition at 0.01 µM [4] [%] | inhibition at 0.01 µM [9] [%] | inhibition at 0.01 µM [12] [%] | inhibition at 0.01 µM [14] [%] | Structure (SMILES) | inhibition at 0.1 µM [5] [%] | inhibition at 0.1 µM [7] [%] | other results |
| --- | --- | --- | --- | --- | --- | --- | --- | --- | --- | --- | --- | --- | --- | --- | --- | --- | --- | --- | --- |
| – | – | 468 | 1320 | 784 | 348 | – | 412 | 4 | 948 | 96 | 93 | 96 | 83 | 91 | 97 | CCc1c(F)ccc2cc(O)cc(-c3ncc4c(N5CCC[C@@]6(CCO6)C5)nc(OCC5(CN(C)C)CC5)nc4c3F)c12 [Example 700, (R)-4-(2-((1-((dimethylamino)methyl)cyclopropyl)methoxy)-8-fluoro-4-(1-oxa-6-azaspiro[3.5]nonan-6-yl)pyrido[4,3-d]pyrimidin-7-yl)-5-ethyl-6-fluoronaphthalen-2-ol] | 103 | 83 | IC50 [5]: 209 nM; inhibition at 0.1 µM [10]: 86%; inhibition at 0.1 µM [11]: 96% |
| < 2 | < 2 | – | 2710 | – | 22 | 2 | 15 | 12 | 30 | 90 | 90 | 90 | 88 | 86 | 94 | CCc1c(F)ccc2cc(O)cc(-c3ncc4c(N5CCC[C@]6(C5)C[C@H](O)C6)nc(OC[C@@]56CCCN5[C@H](COC(=O)N(C)C)CC6)nc4c3F)c12 [Example 712, ((3S,7aS)-7a-(((7-(8-ethyl-7-fluoro-3-hydroxynaphthalen-1-yl)-8-fluoro-4-((2R,4r)-2-hydroxy-6-azaspiro[3.5]nonan-6-yl)pyrido[4,3-d]pyrimidin-2-yl)oxy)methyl)hexahydro-1H-pyrrolizin-3-yl)methyl dimethylcarbamate] | 95 | 52 | – |
| < 2 | < 2 | 19 | 1380 | 29 | 17 | < 2 | 62 | 2 | 33 | 98 | 98 | 98 | 94 | 97 | 96 | CCc1c(F)ccc2cc(O)cc(-c3ncc4c(N5C[C@@H]6C[C@H](C5)[C@H](O)[C@@H]6O)nc(OC[C@@]56CCCN5C[C@H](F)C6)nc4c3F)c12 [Example 568, (1R,5S,6R,7S)-3-(7-(8-ethyl-7-fluoro-3-hydroxynaphthalen-1-yl)-8-fluoro-2-(((2R,7aS)-2-fluorohexahydro-1H-pyrrolizin-7a-yl)methoxy)pyrido[4,3-d]pyrimidin-4-yl)-3-azabicyclo[3.2.1]octane-6,7-diol] | – | – | – |
